Molecular target: T1, BTK (Homo sapiens, UniProt Q06187)
T1 construct: expressed in transfected cells
Experiment: BTK inhibition assay of second generation LFM analogs
Type: biochemical
Settings: Table 4

T1 sequence (Q06187 2-659): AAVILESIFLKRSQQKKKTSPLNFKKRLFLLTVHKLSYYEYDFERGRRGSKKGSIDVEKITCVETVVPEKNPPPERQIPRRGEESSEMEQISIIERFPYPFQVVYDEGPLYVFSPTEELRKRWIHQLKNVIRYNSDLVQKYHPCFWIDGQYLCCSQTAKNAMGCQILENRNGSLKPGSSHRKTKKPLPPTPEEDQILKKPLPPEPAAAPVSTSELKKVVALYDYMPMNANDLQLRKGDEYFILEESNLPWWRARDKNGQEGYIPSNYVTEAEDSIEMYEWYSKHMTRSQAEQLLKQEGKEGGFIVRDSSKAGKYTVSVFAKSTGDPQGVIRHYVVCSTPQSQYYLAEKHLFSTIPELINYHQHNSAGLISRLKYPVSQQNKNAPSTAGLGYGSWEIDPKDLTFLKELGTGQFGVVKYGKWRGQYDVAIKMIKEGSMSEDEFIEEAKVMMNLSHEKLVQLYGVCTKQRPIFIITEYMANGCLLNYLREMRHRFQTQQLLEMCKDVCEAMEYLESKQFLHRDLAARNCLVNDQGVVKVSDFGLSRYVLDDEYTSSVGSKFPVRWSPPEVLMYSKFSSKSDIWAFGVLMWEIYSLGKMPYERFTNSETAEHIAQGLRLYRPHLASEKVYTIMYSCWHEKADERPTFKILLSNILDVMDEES

IC50: 37 µM
SMILES: CC(O)=C(C#N)C(=O)Nc1ccc(Cl)cc1Cl [LFM-A20, α-Cyano-β-hydroxy-β-methyl-N-(2,4-dichlorophenyl)propenamide]

— patent US6365626B1, “BTK inhibitors and methods for their identification and use” (Parker Hughes Institute, priority 1998, dated 2002)
